Literature values as cited in patent US20230293063A1 (SOMNUS SCIENTIFIC LTD, priority 2020, published 2023).

## CC(C)c1cccc(C(C)C)c1O [propofol, 2,6-diisopropylphenol]
Smits, Annaert and Allegaert, 2017
  fraction metabolized in the liver: 90%
blood
  free fraction of the total drug concentration: 2%
